{"source": "paper PMC8929364", "about": "“Metopimazine is primarily metabolized by a liver amidase in humans” (Pharmacology Research & Perspectives, 2021)", "key": {"microsomal CYP enzymes": {"system": "microsomal CYP enzymes", "experiment": "HLM incubation of MPZ with CYP inhibitors", "details": "HLM 0.5 mg/ml, 60 min; for effect of inhibitor on MPZS formation from MPZ / effect of inhibitor on MPZH formation from MPZ (peak area ratio, qualitative): 1 mM ABT; for effect of inhibitor on MPZS formation from MPZ: itraconazole 2.5 µM; for effect of inhibitor on MPZH formation from MPZ (peak area ratio, qualitative): quinidine 1 µM", "description": "Initially, two sets of incubations were conducted with HLM (0.5 mg/ml microsomal protein), 1 and 10 μM MPZ, 100 mM KPi buffer (pH 7.4) where one set was in the presence and the other set was in the absence of 1 mM ABT, a non‐specific CYP inhibitor for 60 min. This allowed the assessment of total CYP contribution for MPZ metabolism. Then, CYP‐specific chemical inhibitors were used to assess the contribution of individual major CYP‐isoforms where HLM were incubated with 1 or 10 μM MPZ in the presence and in the absence of each CYP specific inhibitor at 37°C for 60 min. […] Parallel incubation with seven CYP specific probe substrates (phenacetin for CYP1A2, bupropion for CYP2B6, paclitaxel for CYP2C8, diclofenac for CYP2C9, S‐mephenytoin for CYP2C19, dextromethorphan for CYP2D6 and midazolam for CYP3A4/5) were included in as positive controls. For negative control reaction, MPZ was incubated at 37°C in duplicate in a reaction mixture devoid of NADPH. All other procedures were the same as described previously.\nLC separation conditions were developed for MPZ and its metabolites (MPZA and MPZS), 7‐hydroxycoumarin, each metabolite of CYP probe substrate, benzydamine N‐oxide, and phthalazine. The LC–MS/MS system consisted of a Shimadzu Nexera X2 LC‐30 UPLC system (Shimadzu Corporation), and an API 4000 triple quadrupole mass spectrometer (SCIEX) was used for analysis. All analytes were analyzed using electrospray ionization (ESI) in positive ion mode except for 7‐EC, which used negative ion mode. The LC–MS/MS system was controlled by Analyst software (version 1.6.1, SCIEX).\nFor each analytical method, a calibration curve was generated for the quantification of MPZ and its two metabolites (MPZA and MPZS). […] PAR was also used for all positive control compounds."}, "[1]": {"system": "human liver microsomal amidase", "experiment": "Incubations with heat-treated HLM for microsomal hydrolase/amidase activity, with and without BNPP", "format": "in vitro ADME", "details": "10 µM MPZ, HLM, 60 min", "description": "Prior to the reaction for amidase activity, the reaction mixture containing KPi buffer (pH 7.4, 8.4, or 9.4) and HLM was pre‐incubated at 50°C for 5 min to inactivate CYP and FMO activities in HLM. The mixture was placed on ice to cool down. An aliquot was taken out which was considered as t = 0 min incubation. Then 10 µM MPZ was added into the remaining mixture and incubated at 37°C on an orbital shaker for 60 min. A parallel set of incubations was conducted with 10 µM MPZ in the presence at 2 and 16 µM, of BNPP (a known inhibitor of amidase). All reactions were in triplicate. The total percentage of organic solvent in the incubation mixture was ≤0.1%. The reactions were terminated by the addition of chilled acetonitrile: methanol, 90:10, (v/v). The samples were vortex‐mixed and stored at ≤−70°C and were subjected analyzed by LC–MS/MS."}, "[2]": {"experiment": "Clinical study NG100-101: plasma pharmacokinetics of metopimazine and metabolites after a single oral 60 mg dose", "format": "in vivo, healthy adult subjects (human)", "details": "for % Drug‐related material MPZS: based on AUClast", "description": "The clinical study was conducted at Biotrial Rennes, in accordance with the Declaration of Helsinki. The study (NG100‐101) was a double‐blind, placebo‐ controlled, ascending single‐ and multiple‐dose study of the safety, tolerability, and pharmacokinetics of metopimazine administered orally to healthy adult subjects. The study protocol, informed consent form, and appropriate related documents were approved by the institutional review board, and all subjects provided written informed consent prior to participation in the study. […] In the morning, after at least 10 h of fasting overnight, eight healthy adult subjects (male or female aged 18 to 45), were orally administered metopimazine (or a matching placebo). […] Blood samples were collected at the following time points: predose and 0.25, 0.5, 0.75, 1, 1.25, 1.5, 2, 3, 4, 6, 8, 12, 18, and 24 h postdose; plasma samples were obtained by centrifugation of the blood samples. A comprehensive safety and pharmacokinetic analysis was performed for each cohort for the SAD and MAD parts of the study and will be presented elsewhere. A fit‐for‐purpose discovery method was used to analyze 4 subjects from the highest single dosed cohort for the presence of metabolites. Plasma concentrations of metopimazine, metopimazine acid and metopimazine sulfoxide were quantified using LC–MS/MS methods. Venous blood samples (6 ml) for the determination of plasma concentrations of MPZ and metabolites (MPZA and MPZS) were drawn by direct venipuncture or via an intravenous catheter into K2EDTA Vacutainer® tubes. It was important to avoid hemolysis during blood collection. After collection, the blood samples were centrifuged within 60 min, at 3000 rotations per minute for 10 min at 5°C. The resulting plasma was separated into 2 equal aliquots of 1000 µl (aliquots A & B) and transferred to polypropylene tubes, which were labeled, frozen within 120 min of blood collection and stored at –70°C until required for bioanalysis. Immediately prior to bioanalysis, samples were thawed and a 200 µl aliquots were removed and analytes extracted using acetonitrile protein precipitation. The extracted samples were analyzed twice, once for quantification of MPZ and MPZA and again for MPZS quantification as described below. An MRM LC–MS/MS method was developed for MPZ and metopimazine acid (MPZA) in rat, dog, and human plasma. The method was run in reverse phase in positive ion mode. […] D6‐isotopically labeled internal standards were used for each analyte. The following m/z transitions were monitored: metopimazine 446.3 → 141.1 and metopimazine acid 447.2 → 142.1. […] An MRM LC–MS/MS method was developed to look for metopimazine sulfoxide (MPZS) in human plasma. The method was run in reverse phase in positive ion mode. The system was identical to what was described above except that a slightly longer column was used, a Supelco Discovery HS F5 100 × 4.0 mm (3 µm) column (Sigma‐Aldrich). A D6‐isotopically labeled internal standards was used for MPS and the m/z transition monitored was 462.3 → 98.1. A calibration curve was generated for the quantification of MPZS in human plasma. Noncompartmental Pharmacokinetics analysis was performed in Phoenix 64 Winnonlin version 8.1."}, "[3]": {"experiment": "Incubation of MPZ with pooled human liver microsomes (disappearance, metabolite formation)", "format": "in vitro ADME", "details": "metopimazine incubation in human liver microsomes, full scan LC–MS", "description": "To conduct the metabolic incubation in liver microsomes in the linear range, protein concentration and the reaction time were optimized.\nPAR was also used for all positive control compounds.\nThe degree of disappearance of each analyte was evaluated by comparing the PAR of analyte to IS or concentration in different sampling time points to the PAR of time zero, (t = 0, 100%). The percent of parent remaining values were calculated according to the following equation: %parentremaining=(meanconcentrationorPARateachsamplingtimepoint/meanconcentrationorPARoftimezero)×100"}, "CYP3A4": {"target": "T1, CYP3A4 (Homo sapiens, UniProt P08684)", "T1 construct": "purchased Corning Inc", "T1 sequence (P08684 whole entry, canonical isoform)": "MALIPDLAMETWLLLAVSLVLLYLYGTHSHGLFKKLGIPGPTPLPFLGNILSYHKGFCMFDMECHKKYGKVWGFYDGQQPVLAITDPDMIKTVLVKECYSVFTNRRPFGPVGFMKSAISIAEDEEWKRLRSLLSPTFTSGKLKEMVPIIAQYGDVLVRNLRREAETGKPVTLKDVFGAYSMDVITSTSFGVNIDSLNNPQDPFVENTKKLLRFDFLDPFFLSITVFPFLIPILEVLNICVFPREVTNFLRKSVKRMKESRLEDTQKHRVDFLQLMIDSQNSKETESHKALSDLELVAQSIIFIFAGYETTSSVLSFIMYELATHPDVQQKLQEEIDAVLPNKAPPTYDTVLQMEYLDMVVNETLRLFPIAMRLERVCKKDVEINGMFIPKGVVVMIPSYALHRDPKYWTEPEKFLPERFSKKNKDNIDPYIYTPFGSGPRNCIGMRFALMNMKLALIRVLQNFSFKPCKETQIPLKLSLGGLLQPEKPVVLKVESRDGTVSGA", "experiment": "Incubation of MPZ with recombinant CYP isoforms: CYP3A4", "format": "in vitro ADME", "details": "1 µM MPZ, 60 min", "source_text": "(§1) All other procedures were the same as described previously."}, "CYP3A5": {"target": "T2, CYP3A5 (Homo sapiens, UniProt P20815)", "T2 construct": "purchased Corning Inc", "T2 sequence (P20815 whole entry, canonical isoform)": "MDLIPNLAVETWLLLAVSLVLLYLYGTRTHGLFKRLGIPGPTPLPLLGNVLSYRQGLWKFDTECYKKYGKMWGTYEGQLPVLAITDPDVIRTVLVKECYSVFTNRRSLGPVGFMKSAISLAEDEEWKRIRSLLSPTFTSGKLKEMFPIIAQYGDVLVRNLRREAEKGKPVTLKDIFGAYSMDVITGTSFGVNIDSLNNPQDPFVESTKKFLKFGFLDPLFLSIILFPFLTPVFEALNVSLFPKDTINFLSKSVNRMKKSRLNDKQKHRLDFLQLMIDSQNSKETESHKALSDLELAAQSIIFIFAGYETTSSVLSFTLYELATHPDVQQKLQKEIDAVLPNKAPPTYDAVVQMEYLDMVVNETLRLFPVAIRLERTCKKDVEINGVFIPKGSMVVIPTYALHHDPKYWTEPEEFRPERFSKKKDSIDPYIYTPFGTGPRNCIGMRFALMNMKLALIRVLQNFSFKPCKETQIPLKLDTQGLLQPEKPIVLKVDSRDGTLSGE", "experiment": "Incubation of MPZ with recombinant CYP isoforms: CYP3A5", "format": "in vitro ADME", "details": "1 µM MPZ, 60 min", "source_text": "as §1"}, "microsomal FMOs": {"system": "microsomal FMOs", "experiment": "Incubation of MPZ with HLM for FMO, with and without methimazole", "format": "in vitro ADME, human", "details": "1 mM methimazole, pH 8.4, NADPH, 60 min", "description": "MPZ, at 1.0 and 10.0 µM, was incubated with HLM or HKM to determine the contribution of microsomal FMOs on the metabolism of MPZ.\nA reaction mixture containing KPi buffer (pH 8.4), HLM or HKM (0.5 mg/ml protein) and MPZ (1.0 and 10.0 µM) was pre‐incubated for 3–5 min at 37°C. The reaction was initiated by the addition of NADPH into the reaction mixture. The reaction was conducted for 0 and 60 min. A positive control (benzydamine, 100 µM) was incubated in duplicate for 0 and 20 min. Parallel incubation was conducted by adding 1 mM methimazole, a non‐specific FMO inhibitor, under identical conditions. Heat‐inactivated microsomes (50°C for at least 5 min) was incubated under identical conditions negative control. All other procedures were the same as described previously."}, "[4]": {"details": "4 subjects, single oral 60 mg MPZ dose"}, "[5]": {"details": "plasma, individual subjects, single oral 60 mg MPZ dose"}}, "note": "Values joined by “and” are separate entries in the source; they are usually repeats but may differ in a detail not shown here. Equal values may be shown once.", "data": [{"smiles": "Nn1nnc2ccccc21", "note": "[1‐ABT, 1‐aminobenzotriazole]", "values": [{"measurement": "effect of inhibitor on MPZA formation from MPZ", "setting": "microsomal CYP enzymes; 1 mM ABT or CYP-isoform specific inhibitors", "value": "no effect on MPZA"}, {"measurement": "effect of inhibitor on MPZS formation from MPZ", "setting": "microsomal CYP enzymes", "value": "inhibited the formation of MPZS"}, {"measurement": "effect of inhibitor on MPZH formation from MPZ (peak area ratio, qualitative)", "setting": "microsomal CYP enzymes", "value": "inhibited"}]}, {"smiles": "O=[N+]([O-])c1ccc(OP(=O)(O)Oc2ccc([N+](=O)[O-])cc2)cc1", "note": "[BNPP, bis‐p‐nitrophenyl phosphate]", "values": [{"measurement": "inhibition of MPZA formation", "setting": "[1]; 2 μM BNPP, even at the highest pH", "value": "at least 97%"}, {"measurement": "inhibition of MPZA formation", "setting": "[1]; 16 μM BNPP, all three pH values (7.4, 8.4, 9.4)", "value": "> 99", "unit": "%"}]}, {"smiles": "CS(=O)(=O)c1ccc2c(c1)N(CCCN1CCC(C(N)=O)CC1)c1ccccc1[S+]2[O-]", "note": "(stereo not shown) [MPZS, metopimazine sulfoxide]", "values": [{"measurement": "quantifiability in plasma at late time points", "setting": "[2]; [4]", "value": "not quantifiable by 12 h"}, {"measurement": "time of first appearance in plasma", "setting": "[2]; [4]", "value": "30 to 45", "unit": "min"}, {"measurement": "% Drug‐related material MPZS", "setting": "[2]; individual subjects, single 60 mg dose", "value": "0.4% and 0.9% and 0.5% and 0.8%"}, {"measurement": "% Drug‐related material MPZS", "setting": "[2]; mean of 4 subjects, single 60 mg dose", "value": 0.7, "unit": "%"}, {"measurement": "AUC(0-t)", "setting": "[2]; both sexes, human, plasma, po, 60 mg, plasma, mean of 4 subjects, single oral 60 mg MPZ dose, read-out: MPZS AUClast", "value": 15.8, "unit": "ng·h/mL"}, {"measurement": "Cmax", "setting": "[2]; both sexes, human, plasma, po, 60 mg, plasma, mean of 4 subjects, single oral 60 mg MPZ dose, read-out: MPZS C max", "value": 4.9, "unit": "ng/mL"}, {"measurement": "MPZS AUClast", "setting": "[2]; [5]", "value": "7.6 ng‐h/ml and 25.5 ng‐h/ml and 10.0 ng‐h/ml and 20.1 ng‐h/ml"}, {"measurement": "MPZS C max", "setting": "[2]; [5]", "value": "1.6 ng/mL and 10.2 ng/mL and 3.1 ng/mL and 4.6 ng/mL"}, {"measurement": "MPZS T max", "setting": "[2]; [5]", "value": "4 h and 1.25 h and 1 h"}, {"measurement": "percent of total circulating drug‐related material", "setting": "[2]; rough estimate based on AUClast, single 60 mg dose", "value": "less than 1%"}, {"measurement": "Peak area at time 0", "setting": "[3]", "value": 0}, {"measurement": "Peak area at time 90 min", "setting": "[3]", "value": 59}, {"measurement": "metabolite formation by recombinant CYP3A4", "setting": "CYP3A4", "value": "mainly produced by CYP3A4"}, {"measurement": "metabolite formation by recombinant CYP3A5", "setting": "CYP3A5", "value": "not CYP3A5"}]}, {"smiles": "CCC(C)n1ncn(-c2ccc(N3CCN(c4ccc(OCC5COC(Cn6cncn6)(c6ccc(Cl)cc6Cl)O5)cc4)CC3)cc2)c1=O", "note": "(stereo not shown) [itraconazole]", "values": [{"measurement": "effect of inhibitor on MPZS formation from MPZ", "setting": "microsomal CYP enzymes", "value": "clearly inhibited"}]}, {"smiles": "Cn1cc[nH]c1=S", "note": "[methimazole]", "values": [{"measurement": "effect of FMO inhibitor on MPZA formation in HLM", "setting": "microsomal FMOs", "value": "not inhibited"}]}, {"smiles": "C=C[C@H]1C[N@@]2CC[C@H]1C[C@@H]2[C@@H](O)c1ccnc2ccc(OC)cc12", "note": "[quinidine]", "values": [{"measurement": "effect of inhibitor on MPZH formation from MPZ (peak area ratio, qualitative)", "setting": "microsomal CYP enzymes", "value": "inhibited"}]}]}
